Assays:
Type in all cases: in vivo, BALB/c mice
OVA-sensitized mice [1] = assay: Lung tissue histology (hematoxylin and eosin, light microscope); details: ribavirin 30 and 10 mg/ml; FIG. 4
Protocol: (§1) Female BALB/c mice were obtained and maintained in the Animal Center of the College of Medicine of National Taiwan University (Taiwan, R.O.C.). Animals were used between 6 and 10 weeks of age and were age matched within each experiment. Animal experiment protocol was approved by Animal Committee of the College of Medicine of National Taiwan University (Taiwan, R.O.C.).
(§2) Mice were randomly divided into 4 groups and sensitized by an intraperitoneal injection of OVA (10 μg), which were complexed with aluminum potassium sulfate (alum, 2 mg) on day 0. All mice were boosted with another shot of OVA (10 μg) on day 14 and day 28, respectively. The mice in the negative control group were injected with phosphate buffer solution (PBS). As to the mice in the rest three groups, each group received 20 μl of 0, 10 or 30 mg/ml ribavirin together with intranasal challenge of 0.05 mg of OVA on days 38-40, respectively. AHR for mice in each group was measured on day 41, and all mice were bled and sacrificed on day 42, when the experiment ended. FIG. 1 illustrated the timeline of the above-identified OVA protocol used in this study.
After the lavage, the lungs were immediately removed and fixed in 10% neutral-buffered formalin, routinely processed, and embedded in paraffin wax. […]

OVA-sensitized mice [2] = assay: Cellular composition of bronchoalveolar lavage (BAL) fluid (airway eosinophilic inflammation); details: ribavirin 10 or 30 mg/ml intranasal
Protocol: as §1, §2
Whether ribavirin could alleviate airway inflammation in OVA-sensitized mice was determined by analyzing the cellular composition in the bronchoalveolar lavage (BAL) fluid of the sensitized mice 48 hours a the last challenge. In brief, all groups of OVA sensitized mice were bled from the retro-orbital venous plexus and sacrificed. The lung was immediately lavaged via the trachea cannula with 3×1 ml of HBSS, free of ionized calcium and magnesium. The lavage fluid was centrifuged at 400 xg for 10 minutes at 4° C. After washing, the cells were resuspended in 1 ml HBSS and total cells counts were determined by use of a hemocytometer. Cytocentrifuged preparations were stained with Liu's stain for different cell counts. A minimum of 200 cells was counted and classified as macrophages, lymphocytes, neutrophils and eosinophils, based on standard morphological criteria. Results were illustrated in FIG. 3. […] On the contrary, treatment of ribavirin (10 or 30 mg/ml) decreased not only the total cell counts (FIG. 3A), but also the number of respective cell types including monocytes, neutrophils, and eosinophiles (FIG. 3B).

OVA-sensitized mice [3] = assay: Chemokine/cytokine levels in BAL fluid by ELISA
Protocol: as §1, §2
OVA-sensitized mice were lavage according to the procedure described above, and the levels of chemokines were assayed by an ELISA kit (R&D) in accordance with the manufacturer's instructions. Take the measurement of eotaxin as an example, the BAL fluid was collected and added to wells precoated with anti-eotaxin antibodies over night at 4° C. After incubation for 2 hours, the plates were washed and biotin-conjugated antibodies were added. After two more hours at room temperature, HRP-avidin was then added, and the OD (at 450 nm) values were converted to concentrations of eotaxin in the BALF. The level of other chemokines including KC, IL-4 and INF-γ may be measured according to similar procedures. Results were illustrated in FIG. 5.

OVA-sensitized mice [4] = assay: Airway hyper-responsiveness (AHR) to aerosolized methacholine, whole-body plethysmography (Penh); details: intranasal ribavirin 10 or 30 mg/ml, Mch 0-50 mg/ml, FIG. 2
Protocol: as §1
Mice were randomly divided into 4 groups and sensitized by an intraperitoneal injection of OVA (10 μg), which were complexed with aluminum potassium sulfate (alum, 2 mg) on day 0. All mice were boosted with another shot of OVA (10 μg) on day 14 and day 28, respectively. The mice in the negative control group were injected with phosphate buffer solution (PBS). […] AHR for mice in each group was measured on day 41, and all mice were bled and sacrificed on day 42, when the experiment ended. […]
The effect of ribavirin on airway responsiveness to aerosolized methacholine (Mch) in OVA-sensitized mice were assessed by the following procedures. […] Each reading was taken for 3 minutes and averaged for the entire time course after nebulization. Calculated Data were expressed as the fold increases above saline challenge baseline values using the dimensionless parameter Penh as described. […]

Compound: NC(=O)c1ncn([C@@H]2O[C@H](CO)[C@@H](O)[C@H]2O)n1 [ribavirin]
- infiltration of cells in the lung (OVA-sensitized mice [1]): efficiently inhibit the infiltration of the cells
- pathological damage within the lung (OVA-sensitized mice [1]): reduce the pathological damage within the lung
- total cell counts in BAL fluid (OVA-sensitized mice [2]; 48 hours after last challenge, FIG. 3A): decreased
- number of eosinophils in BAL fluid (OVA-sensitized mice [2]; FIG. 3B): decreased
- number of monocytes in BAL fluid (OVA-sensitized mice [2]; FIG. 3B): decreased
- number of neutrophils in BAL fluid (OVA-sensitized mice [2]; FIG. 3B): decreased
- level of IF-γ in BAL fluid (OVA-sensitized mice [3]; FIG. 5a): not affected
- level of IL-4 in BAL fluid (OVA-sensitized mice [3]; FIG. 5b): not affected
- level of KC in BAL fluid (OVA-sensitized mice [3]; FIG. 5c): significant reduced
- level of eotaxin in BAL fluid (OVA-sensitized mice [3]; FIG. 5d): significant reduced
- airway responsiveness to Mch (Penh) (OVA-sensitized mice [4]): inhibited the increase in airway responsiveness to Mch
